Results published in patent US8338480B2, “Combination treatment of metabolic disorders” (Wellstat Therapeutics Corporation, priority 2006, dated 2012).
Where a name gives a salt, the structure may show the parent alone.

Columns and labels:
Format in all cases: in vivo
[1] = test system: Gold Thioglucose-obese mice; experiment: Serum glucose, triglycerides and free fatty acids in gold thioglucose-obese mice (Example 1); settings: GTG-obese mice, after two weeks
Experimental: Systemic administration of gold thioglucose (GTG) damages glucose-sensing neurons in the hypothalamus, and consequently impairs regulation of satiety, leading to chronic hyperphagia and consequent obesity.
(§1) Mice received single daily oral treatment with Compound BI, rosiglitazone or combinations of the two drugs. A group of lean control mice on a standard low fat rodent chow was also included.
(§2) • 1. Vehicle (1% hydroxypropylmethylcellulose) • 2. Compound BI 30 mg/kg • 3. Compound BI 100 mg/kg • 4. Rosiglitazone (RSG) 3 mg/kg • 5. RSG 3 mg/kg+Compound BI 30 mg/kg • 6. RSG 3 mg/kg+Compound BI 100 mg/kg • 7. Lean Control (no treatment)
After two weeks, blood samples were collected from the retro-orbital sinus for measurement of serum glucose, triglycerides, and free fatty acids.

[2] = test system: Gold Thioglucose-obese (GTG) mice; experiment: Body weight and cumulative food intake in gold thioglucose-obese mice (Example 1); settings: for Δ BW (g) 0-5 Weeks / Body Weight (g ± SEM) Week 1 / Body Weight (g ± SEM) Week 4 / Body Weight (g ± SEM) Week 5: GTG mice; for Cumulative Food Intake / Cumulative Food Intake (grams): per cage of 5 mice
Experimental: Systemic administration of gold thioglucose (GTG) damages glucose-sensing neurons in the hypothalamus, and consequently impairs regulation of satiety, leading to chronic hyperphagia and consequent obesity. Male C57BL/6J mice, weighing 22 to 25 grams received gold thioglucose (Sigma Chemical Company, St. Louis Mo.) by intraperitoneal injection (500 mg/kg). Mice were given a high fat diet (45% Kcal fat; D12451, Research Diets, New Brunswick, N.J.) for 8 weeks to exacerbate obesity.
as §1, with “Mice were then divided into groups comprising 5 mice each, sorted so that each group had similar mean body weights (approximately 47 grams). Mice” for “Mice”
as §2

Adiponectin = experiment: Serum adiponectin in db/db mice after two weeks (Example 4); settings: for Adiponectin ± SD: db/db mice serum
Excerpt: Adiponectin is an glycoprotein secreted from white adipose tissue. Adiponectin improves insulin sensitive in other tissues, e.g. muscle and liver, and is also protective against atherosclerosis. Thiazolidinedione antidiabetic agents such as rosiglitazone or pioglitazone act largely via action at the PPAR-gamma, a nuclear receptor involved in regulation of fuel metabolism. PPAR-gamma agonists enhance adiponectin production by adipose tissue, and this may contribute to their beneficial effects in diabetes and related metabolic disorders.
• 8. Vehicle (1% hydroxypropylmethylcellulose) • 9. Compound BI 100 mg/kg • 10. Rosiglitazone (RSG) 3 mg/kg • 11. Compound BI 100 mg/kg+RSG 3 mg/kg • 12. Compound CF 100 mg/kg • 13. Compound CF 100 mg/kg+RSG 3 mg/kg • 14. Compound CT 100 mg/kg+RSG 3 mg/kg • 15. […]
After two weeks, blood samples were collected from the retro-orbital sinus and processed for serum chemistry measurements.

[3] = test system: Uncoupling Protein 1 (UCP1); experiment: UCP1 content of white adipose tissue by Western blot in db/db mice (Example 6); settings: for WAT UCP1 (relative light units): db/db mice epididymal fat pads, two weeks daily oral
Excerpt: Uncoupling Protein 1 (UCP1) is a protein that can dissipate metabolic energy when expressed in the mitochondrial membrane. It is present in brown adipose tissue (BAT; the brown color is due to a higher density of mitochondria than in white adipose tissue) in small mammals where its main function is to generate heat, but it can also serve to accelerate combustion of fatty acids. This latter function is especially important when UCP1 is expressed in tissues other than brown fat, since depots of brown fat are limited in humans Expression of UCP1 in white fat alters the functional phenotype of the tissue from fat storage to fat combustion. Transgenic mice expressing UCP1 in white adipose tissue are resistant to obesity and diabetes induced by a high fat diet. Pharmacological induction of UCP1 expression in white adipose tissue is therefore an attractive strategy for promoting weight reduction and resistance to body weight gain. […]
Treatment cohorts were given daily oral doses of vehicle, Compound BI (100 mg/kg/day), rosiglitazone (RSG; 3 mg/kg/day) or a combination of the two drugs for 2 weeks. […] Blood samples were also collected prior to sacrifice via the retro-orbital plexus, and processed and analyzed for serum glucose (AniLytics, Inc.; Gaithersburg Md.). […]
The membrane was washed 3 times in TBST at room temperature, and then incubated with a primary anti UCPI antibody (Chemicon Rabbit anti-mouse UCP-1, catalogue #AB3036) for 1 hr at RT (room temperature) in a sealed bag. […] The membrane was washed 6×7 min in TBST at room temperature, and then incubated with ECL (enhanced chemiluminescence) reagent (Amersham) for 1 min, and the relative amounts of UCP1 in tissue samples were quantified by densitometry of the images on X-ray film resulting from exposure to light from the chemiluminescence reaction, and expressed as relative light units (RLU).

[4] = GTG-obese mice, 5 weeks, RSG 3 mg/kg
[5] = Compound BI 30 mg/kg oral daily
[6] = Compound BI 100 mg/kg oral daily
[7] = GTG-obese mice, 5 weeks, Compound BI 30 mg/kg
[8] = GTG-obese mice, 5 weeks, Compound BI 100 mg/kg

CN(CCOc1ccc(CC2SC(=O)NC2=O)cc1)c1ccccn1 (stereo not shown) [RSG, rosiglitazone maleate, reference compound]
Free Fatty Acids ± SEM ([1]; RSG 3 mg/kg oral daily): 813.8 ± 34.2 UMOL/L
Glucose ± SEM ([1]; RSG 3 mg/kg oral daily): 215.8 ± 14.3 mg/dL
Triglycerides ± SEM ([1]; RSG 3 mg/kg oral daily): 61.4 ± 4.3 mg/dL
Δ BW (g) 0-5 Weeks ([2]; RSG 3 mg/kg oral daily): -1.2 ± 0.2 g
Body Weight (g ± SEM) Week 1 ([2]; RSG 3 mg/kg oral daily): 47.0 ± 1.0 g
Body Weight (g ± SEM) Week 4 ([2]; RSG 3 mg/kg oral daily): 46.0 ± 1.1 g
Body Weight (g ± SEM) Week 5 ([2]; RSG 3 mg/kg oral daily): 46.3 ± 1.0 g
Cumulative Food Intake [2, 4]: 1293 kcal
Cumulative Food Intake (grams) [2, 4]: 275 grams
Adiponectin ± SD (Adiponectin; RSG 3 mg/kg alone): 12.3 ± 3.0 micrograms/ml
WAT UCP1 (relative light units) ([3]; RSG 3 mg/kg): 2067 ± 717 relative light units

Cc1cccc(C)c1COc1cccc(C(=O)CCC(=O)O)c1 [Compound BI, 4-(3-(2,6-Dimethylbenzyloxy)phenyl)-4-oxobutyric acid]
blood glucose, triglycerides and free fatty acids (in words) [1]: dose-dependent decreases
Free Fatty Acids ± SEM [1, 5]: 969.2 ± 18.2 UMOL/L
Glucose ± SEM [1, 5]: 205.8 ± 8.1 mg/dL
Triglycerides ± SEM [1, 5]: 62.8 ± 3.0 mg/dL
Free Fatty Acids ± SEM [1, 6]: 936.2 ± 63.0 UMOL/L
Glucose ± SEM [1, 6]: 160.0 ± 17.7 mg/dL
Triglycerides ± SEM [1, 6]: 53.8 ± 7.4 mg/dL
Δ BW (g) 0-5 Weeks [2, 5]: -9.8 ± 0.2 g
Δ BW (g) 0-5 Weeks [2, 6]: -14.6 ± 0.3 g
Body Weight (g ± SEM) Week 1 [2, 5]: 39.8 ± 0.9 g
Body Weight (g ± SEM) Week 1 [2, 6]: 38.4 ± 1.1 g
Body Weight (g ± SEM) Week 4 [2, 5]: 40.0 ± 1.1 g
Body Weight (g ± SEM) Week 4 [2, 6]: 34.0 ± 1.0 g
Body Weight (g ± SEM) Week 5 [2, 5]: 37.4 ± 0.9 g
Body Weight (g ± SEM) Week 5 [2, 6]: 33.0 ± 1.1 g
total food and calorie consumption (in words) ([2]; GTG-obese mice, 5 weeks): reduced total food and calorie consumption
Cumulative Food Intake [2, 7]: 1048 kcal
Cumulative Food Intake (grams) [2, 7]: 223 grams
Cumulative Food Intake [2, 8]: 902 kcal
Cumulative Food Intake (grams) [2, 8]: 192 grams
body weight (in words) ([2]; GTG-obese mice, over the course of 5 weeks): decrease in body weight
Adiponectin ± SD (Adiponectin; compound alone 100 mg/kg): 9.3 ± 4.8 micrograms/ml
effect on adiponectin with concurrent rosiglitazone (in words) (Adiponectin; db/db mice, 100 mg/kg + RSG 3 mg/kg): strongly amplify the effect of concurrent rosiglitazone on adiponectin
serum adiponectin, individual agents (in words) (Adiponectin; db/db mice, agent alone): did not elevate serum adiponectin levels
WAT UCP1 (relative light units) ([3]; Cpd. BI 100 mg/kg): 322 ± 94 relative light units
UCP1 content of white adipose tissue (in words) ([3]; db/db mice, 2 weeks, Compound BI 100 mg/kg/day, RSG 3 mg/kg/day, alone or combined): slightly the UCP1 content of elevated white adipose tissue
